The values that follow come from BindingDB's records for doi:10.1021/jm8009124 (University of Connecticut At Storrs, 2008).

What is called IC50 is the concentration needed to halve the response being measured. Read a high IC50 as lower potency.

This experiment has as its target T1, Bifunctional dihydrofolate reductase-thymidylate synthase (Cryptosporidium parvum, UniProt Q27552).
T1 sequence (Q27552 whole entry): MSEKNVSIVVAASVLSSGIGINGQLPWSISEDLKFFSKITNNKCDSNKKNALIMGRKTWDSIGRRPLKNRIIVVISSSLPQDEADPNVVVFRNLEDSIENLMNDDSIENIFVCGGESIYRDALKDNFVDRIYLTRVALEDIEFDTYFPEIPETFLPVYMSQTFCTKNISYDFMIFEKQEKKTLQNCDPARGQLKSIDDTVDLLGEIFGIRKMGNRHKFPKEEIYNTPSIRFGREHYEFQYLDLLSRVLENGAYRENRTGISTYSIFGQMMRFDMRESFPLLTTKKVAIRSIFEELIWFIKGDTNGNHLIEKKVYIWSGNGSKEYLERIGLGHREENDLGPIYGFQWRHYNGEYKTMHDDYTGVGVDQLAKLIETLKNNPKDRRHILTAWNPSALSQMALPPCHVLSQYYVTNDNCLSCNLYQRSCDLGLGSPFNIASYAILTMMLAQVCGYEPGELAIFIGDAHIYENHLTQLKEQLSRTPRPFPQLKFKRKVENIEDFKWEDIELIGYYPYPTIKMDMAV
The experiment in a line: DHFR Inhibition Assay. Conditions: pH 7; 25 °C. On the procedure:
Enzyme activity assays were performed by monitoring the change in UV absorbance at 340 nm. Enzyme assays were performed at least four times. IC50 values and their standard deviations were calculated in the presence of varying ligand concentration.
`COc1cc(C(C)C#Cc2c(C)nc(N)nc2N)ccc1-c1c(C)cccc1C` (stereo unspecified) [5-{3-[4-(2,6-dimethylphenyl)-3-methoxyphenyl]but-1-yn-1-yl}-6-methylpyrimidine-2,4-diamine] gave an IC50 of 7.4 nM.
To `COc1cc(-c2ccccc2)cc([C@H](C)C#Cc2c(C)nc(N)nc2N)c1` [5-[(3S)-3-(3-methoxy-5-phenylphenyl)but-1-yn-1-yl]-6-methylpyrimidine-2,4-diamine] belongs 30 nM; to `COc1cc(C(C)C#Cc2c(C)nc(N)nc2N)ccc1-c1ccccc1` (stereo unspecified) [5-[3-(3-methoxy-4-phenylphenyl)but-1-yn-1-yl]-6-methylpyrimidine-2,4-diamine], 19 nM; to `COc1cc(-c2c(C(C)C)cccc2C(C)C)cc(C(C)C#Cc2c(C)nc(N)nc2N)c1` (stereo unspecified) [5-(3-{3-[2,6-bis(propan-2-yl)phenyl]-5-methoxyphenyl}but-1-yn-1-yl)-6-methylpyrimidine-2,4-diamine], 10 nM.
In the case of `COc1cc(-c2ccccc2)cc([C@@H](C)C#Cc2c(C)nc(N)nc2N)c1` [5-[(3R)-3-(3-methoxy-5-phenylphenyl)but-1-yn-1-yl]-6-methylpyrimidine-2,4-diamine], the IC50 is 1.1 nM.
As for `COc1cc(C(C)C#Cc2c(C)nc(N)nc2N)ccc1-c1ccccc1C` (stereo unspecified) [5-{3-[3-methoxy-4-(2-methylphenyl)phenyl]but-1-yn-1-yl}-6-methylpyrimidine-2,4-diamine], the IC50 worked out at 36 nM.
